Data on 28 compounds can be found in patent publication US9255090B2, “Heterocyclyl derivatives and their use as prostaglandin D2 receptor modulators” (Actelion Pharmaceuticals Ltd., priority 2012, dated 2016).

Assay [1] deals with hCRTH2 receptor (Homo sapiens (Human), UniProt Q9Y5Y4). The assay can be described thus: hCRTH2 receptor membranes radioligand (3H-PGD2) displacement assay. The conditions noted are these: 3H-PGD2 radioligand displacement, HEK293-hCRTH2 membranes. In kind it is binding. A digest of the protocol: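 Compound was first mixed with buffer, then 3H-PGD2 was added at 2.5 nM, and the reaction was started with hCRTH2 membranes from HEK293 cells at 20 μg/well. After 90 min at room temperature, mixtures were filtered and washed with ice-cold buffer, and retained radioactivity was counted.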
Chain of hCRTH2 receptor (Q9Y5Y4 whole entry): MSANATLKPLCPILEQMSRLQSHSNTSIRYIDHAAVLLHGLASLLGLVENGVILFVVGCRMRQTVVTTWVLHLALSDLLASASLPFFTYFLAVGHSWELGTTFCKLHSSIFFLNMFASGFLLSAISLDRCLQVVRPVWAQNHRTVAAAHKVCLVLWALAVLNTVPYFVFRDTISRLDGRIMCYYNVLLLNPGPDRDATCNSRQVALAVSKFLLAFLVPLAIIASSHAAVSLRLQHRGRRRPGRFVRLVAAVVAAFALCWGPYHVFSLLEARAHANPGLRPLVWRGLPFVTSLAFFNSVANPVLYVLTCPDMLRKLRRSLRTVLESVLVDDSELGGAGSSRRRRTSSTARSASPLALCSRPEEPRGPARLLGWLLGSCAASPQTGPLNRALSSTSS

The subject of assay [2] is eosinophils. Put plainly: Eosinophil shape change assay with human plasma. The class given is cell-based. The conditions noted are these: human plasma (50%), PGD2 100 nM activation, antagonistic activity. The gist of the method: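 Human polymorphonuclear cells stained with anti-CD49d-APC, combined with compound-preincubated human plasma (50% of final volume, 4×10^6 cells/ml) for 10 min at 37° C., then stimulated 5 min with 100 nM PGD2 and fixed. Flow cytometry scored percent eosinophils with increased forward scatter.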

A value given as a limit tells only on which side of the number the result lay.

Usually IC50 stands for the point on the concentration scale where inhibition reaches its midpoint. On to `COc1ccc(CC(=O)O)cc1-c1ccc(Cl)c2c1CN(C(=O)[C@@H]1C[C@H]1c1cccc(F)c1)CC2` [Example 69, (3-{5-Chloro-2-[(1R,2R)-2-(3-fluoro-phenyl)-cyclopropanecarbonyl]-1,2,3,4-tetrahydro-isoquinolin-8-yl}-4-methoxy-phenyl)-acetic acid], for which the IC50 was found to be 9.58 nM in assay [1] and 78 nM in assay [2] (Homo sapiens, Eosinophil).
With `CCOc1cc(CC(=O)O)ccc1-c1ccc(F)c2c1CN(C(=O)OCc1ccc(F)cc1F)CC2` [Example 409, 8-(4-Carboxymethyl-2-ethoxy-phenyl)-5-fluoro-3,4-dihydro-1H-isoquinoline-2-carboxylic acid 2,4-difluoro-benzyl ester], the IC50 in assay [1] was 3.9 nM; in assay [2] (Homo sapiens, Eosinophil) it was 5 nM.
In the case of `CCOc1ccc(CC(=O)O)cc1-c1ccc(F)c2c1CN(C(=O)OCc1cc(F)ccc1F)CC2` [Example 401, 8-(5-Carboxymethyl-2-ethoxy-phenyl)-5-fluoro-3,4-dihydro-1H-isoquinoline-2-carboxylic acid 2,5-difluoro-benzyl ester], the IC50 in assay [1] turned out to be 4.5 nM; in assay [2] (Homo sapiens, Eosinophil), 26 nM.
With `CCCCOC(=O)N1CCc2c(F)ccc(-c3cc(CC(=O)O)ccc3OCC)c2C1` [Example 376, 8-(5-Carboxymethyl-2-ethoxy-phenyl)-5-fluoro-3,4-dihydro-1H-isoquinoline-2-carboxylic acid butyl ester], the IC50 in assay [1] was 6.3 nM; in assay [2] (Homo sapiens, Eosinophil), 59 nM.
As for `COc1cc(CC(=O)O)ccc1-c1ccc(F)c2c1CN(C(=O)CCc1cn(C)c3ccccc13)CC2` [Example 183, (4-{5-Fluoro-2-[3-(1-methyl-1H-indol-3-yl)-propionyl]-1,2,3,4-tetrahydro-isoquinolin-8-yl}-3-methoxy-phenyl)-acetic acid], the IC50 in assay [1] was found to be 0.46 nM; in assay [2] (Homo sapiens, Eosinophil) it was 194 nM.
`O=C(O)Cc1cc2c(c(-c3ccc(F)c4c3CN(C(=O)OCc3ccccc3)CC4)c1)OCCO2` [Example 168, 8-(7-Carboxymethyl-2,3-dihydro-benzo[1,4]dioxin-5-yl)-5-fluoro-3,4-dihydro-1H-isoquinoline-2-carboxylic acid benzyl ester]: the IC50 in assay [1] amounted to 17.9 nM; in assay [2] (Homo sapiens, Eosinophil), 133 nM.
`CCOc1ccc(CC(=O)O)cc1-c1ccc(F)c2c1CN(C(=O)OCC1CCCC1)CC2` [Example 369, 8-(5-Carboxymethyl-2-ethoxy-phenyl)-5-fluoro-3,4-dihydro-1H-isoquinoline-2-carboxylic acid cyclopentylmethyl ester]: the IC50 came out at 8.7 nM in assay [1] and 266 nM in assay [2] (Homo sapiens, Eosinophil).
In the case of `CCOc1ccc(CC(=O)O)cc1-c1ccc(F)c2c1CN(C(=O)OCc1ccccc1F)CC2` [Example 400, 8-(5-Carboxymethyl-2-ethoxy-phenyl)-5-fluoro-3,4-dihydro-1H-isoquinoline-2-carboxylic acid 2-fluoro-benzyl ester], the IC50 in assay [1] worked out at 12.8 nM; in assay [2] (Homo sapiens, Eosinophil) it was 21 nM.
On to `CCOc1ccc(CC(=O)O)cc1-c1ccc(F)c2c1CN(C(=O)CC1(c3cccc(F)c3)CC1)CC2` [Example 275, [4-Ethoxy-3-(5-fluoro-2-{2-[1-(3-fluoro-phenyl)-cyclopropyl]-acetyl}-1,2,3,4-tetrahydro-isoquinolin-8-yl)-phenyl]-acetic acid], for which the half-maximal inhibitory concentration (IC50) in assay [1] was found to be 6.8 nM; in assay [2] (Homo sapiens, Eosinophil), 76 nM.
With `COc1ccc(CC(=O)O)cc1-c1ccc(F)c2c1CN(C(=O)CCc1cn(C)c3ccccc13)CC2` [Example 62, (3-{5-Fluoro-2-[3-(1-methyl-1H-indol-3-yl)-propionyl]-1,2,3,4-tetrahydro-isoquinolin-8-yl}-4-methoxy-phenyl)-acetic acid], the IC50 in assay [1] turned out to be 4.74 nM; in assay [2] (Homo sapiens, Eosinophil), 106 nM.
As for `CCOc1ccc(CC(=O)O)cc1-c1ccc(F)c2c1CN(C(=O)OCCC(C)C)CC2` [Example 370, 8-(5-Carboxymethyl-2-ethoxy-phenyl)-5-fluoro-3,4-dihydro-1H-isoquinoline-2-carboxylic acid 3-methyl-butyl ester], the IC50 in assay [1] turned out to be 7 nM; in assay [2] (Homo sapiens, Eosinophil) it was 76 nM.
Turning to `CCOc1ccc(CC(=O)O)cc1-c1ccc(F)c2c1CN(C(=O)OCCc1ccccc1)CC2` [Example 373, 8-(5-Carboxymethyl-2-ethoxy-phenyl)-5-fluoro-3,4-dihydro-1H-isoquinoline-2-carboxylic acid phenethyl ester], the IC50 worked out at 1.7 nM in assay [1] and 42 nM in assay [2] (Homo sapiens, Eosinophil).
For the compound `COc1ccc(CC(=O)O)cc1-c1cc(F)cc2c1CN(C(=O)[C@@H]1C[C@H]1c1ccccc1)CC2` [Example 34, {3-[6-Fluoro-2-((1R,2R)-2-phenyl-cyclopropanecarbonyl)-1,2,3,4-tetrahydro-isoquinolin-8-yl]-4-methoxy-phenyl}-acetic acid], the IC50 in assay [1] is 2.7 nM; in assay [2] (Homo sapiens, Eosinophil) it was 25 nM.
As for `COc1ccc(CC(=O)O)cc1-c1ccc(F)c2c1CN(C(=O)CC(C)(C)c1cccc(F)c1)CC2` [Example 252, (3-{5-Fluoro-2-[3-(3-fluoro-phenyl)-3-methyl-butyryl]-1,2,3,4-tetrahydro-isoquinolin-8-yl}-4-methoxy-phenyl)-acetic acid], the IC50 in assay [1] came out at 13.2 nM; in assay [2] (Homo sapiens, Eosinophil), 258 nM.
For `O=C(O)Cc1ccc(Cl)c(-c2ccc(F)c3c2CN(C(=O)[C@@H]2C[C@H]2c2ccccc2)CC3)c1` [Example 28, {4-Chloro-3-[5-fluoro-2-((1R,2R)-2-phenyl-cyclopropanecarbonyl)-1,2,3,4-tetrahydro-isoquinolin-8-yl]-phenyl}-acetic acid] the same measures were 10 nM and 42 nM.
Take `COc1ccc(CC(=O)O)cc1-c1ccc(C(F)(F)F)c2c1CN(C(=O)[C@@H]1C[C@H]1c1ccccc1)CC2` (racemic) [Example 83, (±)-{4-Methoxy-3-[2-(trans-2-phenyl-cyclopropanecarbonyl)-5-trifluoromethyl-1,2,3,4-tetrahydro-isoquinolin-8-yl]-phenyl}-acetic acid]: the IC50 is 26.1 nM in assay [1] and > 1000 nM in assay [2] (Homo sapiens, Eosinophil).
Regarding `CCOc1cc(CC(=O)O)ccc1-c1ccc(F)c2c1CN(C(=O)O[C@@H](C)c1ccccc1)CC2` [Example 389, 8-(4-Carboxymethyl-2-ethoxy-phenyl)-5-fluoro-3,4-dihydro-1H-isoquinoline-2-carboxylic acid (S)-1-phenyl-ethyl ester], the IC50 amounted to 16.7 nM in assay [1] and 122 nM in assay [2] (Homo sapiens, Eosinophil).
Consider `COc1ccc(CC(=O)O)cc1-c1ccc(F)c2c1CN(C(=O)OCc1ccccc1F)CC2` [Example 146, 8-(5-Carboxymethyl-2-methoxy-phenyl)-5-fluoro-3,4-dihydro-1H-isoquinoline-2-carboxylic acid 2-fluoro-benzyl ester], for which the IC50 in assay [1] turned out to be 3.06 nM; in assay [2] (Homo sapiens, Eosinophil), 266 nM.
With `CCOc1cc(CC(=O)O)ccc1-c1ccc(F)c2c1CN(C(=O)CC1CCOc3ccccc31)CC2` (racemic) [Example 236], the IC50 in assay [1] stood at 0.8 nM; in assay [2] (Homo sapiens, Eosinophil) it was 12 nM.
In the case of `CC(C)Oc1ccc(CC(=O)O)cc1-c1ccc(C#N)c2c1CN(C(=O)OCc1ccccc1)CC2` [Example 431, 8-(5-Carboxymethyl-2-isopropoxy-phenyl)-5-cyano-3,4-dihydro-1H-isoquinoline-2-carboxylic acid benzyl ester], the IC50 in assay [1] was 1.4 nM; in assay [2] (Homo sapiens, Eosinophil), 47 nM.
Regarding `CCOc1cc(CC(=O)O)ccc1-c1ccc(F)c2c1CN(C(=O)CC(C)(C)c1ccccc1)CC2` [Example 238, {3-Ethoxy-4-[5-fluoro-2-(3-methyl-3-phenyl-butyryl)-1,2,3,4-tetrahydro-isoquinolin-8-yl]-phenyl}-acetic acid], the IC50 in assay [1] was 0.6 nM; in assay [2] (Homo sapiens, Eosinophil), 15 nM.
For the compound `CCOc1ccc(CC(=O)O)cc1-c1ccc(F)c2c1CN(C(=O)OCc1ccc(F)cc1)CC2` [Example 398, 8-(5-Carboxymethyl-2-ethoxy-phenyl)-5-fluoro-3,4-dihydro-1H-isoquinoline-2-carboxylic acid 4-fluoro-benzyl ester], the IC50 in assay [1] came to 3.4 nM; in assay [2] (Homo sapiens, Eosinophil), 13 nM.
As for `CCOc1ccc(CC(=O)O)cc1-c1ccc(F)c2c1CN(C(=O)C(C)Cc1ccccc1)CC2` (centres unmarked) [Example 214], the IC50 turned out to be 3.1 nM in assay [1] and 11 nM in assay [2] (Homo sapiens, Eosinophil).
`CCOc1cc(CC(=O)O)ccc1-c1ccc(F)c2c1CN(C(=O)OCc1cc(F)ccc1F)CC2` [Example 407, 8-(4-Carboxymethyl-2-ethoxy-phenyl)-5-fluoro-3,4-dihydro-1H-isoquinoline-2-carboxylic acid 2,5-difluoro-benzyl ester]: the IC50 was found to be 2.1 nM in assay [1] and 9 nM in assay [2] (Homo sapiens, Eosinophil).
The corresponding values for `COc1ccc(CC(=O)O)cc1-c1ccc(F)c2c1CN(C(=O)OCc1cccc(F)c1F)CC2` [Example 147, 8-(5-Carboxymethyl-2-methoxy-phenyl)-5-fluoro-3,4-dihydro-1H-isoquinoline-2-carboxylic acid 2,3-difluoro-benzyl ester] are 2.51 nM and 622 nM.
Regarding `CCOc1ccc(CC(=O)O)cc1-c1ccc(F)c2c1CN(C(=O)CC(C)c1ccccn1)CC2` (centres unmarked) [Example 203, {4-Ethoxy-3-[5-fluoro-2-(3-pyridin-2-yl-butyryl)-1,2,3,4-tetrahydro-isoquinolin-8-yl]-phenyl}-acetic acid], the IC50 in assay [1] worked out at 2.9 nM; in assay [2], 12 nM.
On to `CCOc1ccc(CC(=O)O)cc1-c1ccc(F)c2c1CN(C(=O)C(C)Cc1ccccn1)CC2` (racemic) [Example 351], for which the IC50 in assay [1] amounted to 3.1 nM; in assay [2] (Homo sapiens, Eosinophil) it was 26 nM.
Regarding `COc1ccc(OCC(=O)O)cc1-c1ccc(F)c2c1CN(C(=O)OCc1ccccc1)CC2` [Example 177, 8-(5-Carboxymethoxy-2-methoxy-phenyl)-5-fluoro-3,4-dihydro-1H-isoquinoline-2-carboxylic acid benzyl ester], the IC50 in assay [1] is 21.3 nM; in assay [2] (Homo sapiens, Eosinophil), 539 nM.
